In US20200054643A1, “FUSED HETEROCYCLIC COMPOUNDS AS SELECTIVE BMP INHIBITORS” (Vanderbilt University, priority 2017, published 2020) one finds IC50 data, which are given here for 15 molecules.

One assay concerns BMP4. The experiment in a line: BMP4 cell assay (BMP reporter). The assay is classed as cell-based. As to conditions: Table 2.
In a further assay the target is T1, ALK2/ACVR1 (Homo sapiens, UniProt Q04771).
T1 sequence (Q04771 21-509): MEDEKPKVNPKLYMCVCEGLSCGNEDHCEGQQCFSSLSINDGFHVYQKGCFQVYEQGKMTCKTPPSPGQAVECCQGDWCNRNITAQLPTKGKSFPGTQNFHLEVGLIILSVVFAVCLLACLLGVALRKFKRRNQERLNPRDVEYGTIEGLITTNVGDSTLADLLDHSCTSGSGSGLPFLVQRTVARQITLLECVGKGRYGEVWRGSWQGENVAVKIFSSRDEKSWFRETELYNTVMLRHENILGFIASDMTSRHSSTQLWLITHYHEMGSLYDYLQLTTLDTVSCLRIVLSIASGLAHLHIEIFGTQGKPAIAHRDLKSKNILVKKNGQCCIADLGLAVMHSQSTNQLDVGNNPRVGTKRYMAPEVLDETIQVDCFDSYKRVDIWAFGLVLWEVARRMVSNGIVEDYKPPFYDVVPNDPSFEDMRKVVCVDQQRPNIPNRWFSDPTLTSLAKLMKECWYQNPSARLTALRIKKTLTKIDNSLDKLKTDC
The experiment in a line: BMP Type 1 receptor assay, ALK2/ACVR1. The assay is classed as biochemical.

For the next assay, the target named is ALK3/BMPRR1A (Homo sapiens, UniProt P36894). The experiment in a line: BMP Type 1 receptor assay, ALK3/BMPRR1A. The assay is classed as biochemical.
For another assay, the target named is ALK6/BMPR1B (Homo sapiens, UniProt O00238). The experiment in a line: BMP Type 1 receptor assay, ALK6/BMPR1B. The class given is biochemical.
A further assay addresses T2, ALK5/TGFBR1 (Homo sapiens, UniProt P36897).
T2 sequence (P36897 34-503): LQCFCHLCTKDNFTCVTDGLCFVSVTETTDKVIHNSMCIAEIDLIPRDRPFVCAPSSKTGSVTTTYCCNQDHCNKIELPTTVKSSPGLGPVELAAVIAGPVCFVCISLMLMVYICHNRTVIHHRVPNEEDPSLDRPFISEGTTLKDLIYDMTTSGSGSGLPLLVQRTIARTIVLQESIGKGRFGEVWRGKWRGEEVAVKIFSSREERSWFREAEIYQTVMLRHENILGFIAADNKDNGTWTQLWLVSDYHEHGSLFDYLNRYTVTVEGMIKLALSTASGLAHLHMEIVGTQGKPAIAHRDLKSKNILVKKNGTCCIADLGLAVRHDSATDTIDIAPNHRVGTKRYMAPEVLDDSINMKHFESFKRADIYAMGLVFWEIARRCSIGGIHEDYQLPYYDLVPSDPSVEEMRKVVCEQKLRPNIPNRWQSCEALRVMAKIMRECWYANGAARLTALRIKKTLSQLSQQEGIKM
The experiment in a line: BMP Type 1 receptor assay, ALK5/TGFBR1. The assay is classed as biochemical.

For a further assay, the target named is ALK1/ACVR1 (Homo sapiens, UniProt P37023). The experiment in a line: BMP Type 1 receptor assay, ALK1/ACVR1. The class given is biochemical.
Chain of ALK1/ACVR1 (P37023 22-503): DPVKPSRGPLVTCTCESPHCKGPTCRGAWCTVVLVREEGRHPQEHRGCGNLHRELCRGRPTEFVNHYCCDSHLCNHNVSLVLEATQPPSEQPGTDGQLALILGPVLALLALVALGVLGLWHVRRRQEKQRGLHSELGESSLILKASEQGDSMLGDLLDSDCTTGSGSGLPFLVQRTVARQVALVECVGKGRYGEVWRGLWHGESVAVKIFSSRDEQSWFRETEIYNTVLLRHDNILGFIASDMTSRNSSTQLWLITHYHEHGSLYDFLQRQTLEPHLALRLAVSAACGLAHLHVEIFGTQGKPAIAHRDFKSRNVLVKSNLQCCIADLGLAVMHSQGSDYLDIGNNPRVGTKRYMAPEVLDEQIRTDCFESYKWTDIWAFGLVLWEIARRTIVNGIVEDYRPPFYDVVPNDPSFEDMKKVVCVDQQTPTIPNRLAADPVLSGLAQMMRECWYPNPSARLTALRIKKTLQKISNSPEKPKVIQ

Chain of ALK3/BMPRR1A (P36894 24-532): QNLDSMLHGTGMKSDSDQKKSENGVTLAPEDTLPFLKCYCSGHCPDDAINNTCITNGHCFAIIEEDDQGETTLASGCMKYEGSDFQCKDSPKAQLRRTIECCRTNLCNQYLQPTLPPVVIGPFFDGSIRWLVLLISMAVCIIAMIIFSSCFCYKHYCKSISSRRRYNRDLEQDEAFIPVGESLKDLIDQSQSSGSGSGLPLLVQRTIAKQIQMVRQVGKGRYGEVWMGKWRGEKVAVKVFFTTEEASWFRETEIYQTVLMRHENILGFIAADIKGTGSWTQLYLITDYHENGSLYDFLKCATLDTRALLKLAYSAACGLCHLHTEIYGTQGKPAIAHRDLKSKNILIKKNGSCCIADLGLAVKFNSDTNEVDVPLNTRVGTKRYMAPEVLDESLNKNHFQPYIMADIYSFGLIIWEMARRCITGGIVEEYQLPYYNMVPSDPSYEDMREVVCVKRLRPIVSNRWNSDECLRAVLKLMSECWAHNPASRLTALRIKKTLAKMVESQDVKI
Chain of ALK6/BMPR1B (O00238 14-502): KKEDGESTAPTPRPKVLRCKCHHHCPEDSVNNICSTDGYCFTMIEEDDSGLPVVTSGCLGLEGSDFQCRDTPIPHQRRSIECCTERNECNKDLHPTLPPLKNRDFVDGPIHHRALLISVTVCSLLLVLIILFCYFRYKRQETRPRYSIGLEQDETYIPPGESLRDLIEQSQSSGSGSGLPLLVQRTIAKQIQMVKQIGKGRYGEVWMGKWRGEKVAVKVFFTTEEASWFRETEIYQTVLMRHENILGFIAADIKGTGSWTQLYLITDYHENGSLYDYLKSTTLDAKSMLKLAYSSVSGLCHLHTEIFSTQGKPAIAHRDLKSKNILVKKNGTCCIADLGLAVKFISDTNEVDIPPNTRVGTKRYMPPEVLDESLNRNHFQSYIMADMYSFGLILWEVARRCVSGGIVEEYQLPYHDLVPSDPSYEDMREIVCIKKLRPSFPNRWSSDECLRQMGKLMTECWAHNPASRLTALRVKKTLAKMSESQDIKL

By IC50 is commonly meant the point on the concentration scale where inhibition reaches its midpoint. With `CC(C)Oc1ccc(-c2cc3ncc(-c4ccnc5ccccc45)n3cn2)cc1`, in the assay with BMP4, the half-inhibitory concentration (IC50) is 8100 nM.
The molecule `c1ccc2c(-c3cnc4cc(-c5ccc6c(c5)OCCO6)ccn34)ccnc2c1` [Entry 5, 4-(7-(2,3-dihydrobenzo[b][1,4]dioxin-6-yl)imidazo[1,2-a]pyridin-3-yl)quinoline] returned an IC50 against ALK2/ACVR1 of 270 nM. In other words, the sub-micromolar range.
As for `CN1CCN(c2ccc(-c3ccn4c(-c5ccnc6ccccc56)cnc4c3)cc2)CC1` [Entry 21, 4-(7-(4-(4-methylpiperazin-1-yl)phenyl)imidazo[1,2-a]pyridin-3-yl)quinoline], the IC50 came to 7.9 nM against ALK3/BMPRR1A, 11 nM against ALK6/BMPR1B and 3960 nM on ALK5/TGFBR1.
For the molecule `CC(C)Oc1ccc(-c2ccn3c(-c4ccnc(Cl)c4)cnc3c2)cc1` [Entry 25, 3-(2-chloropyridin-4-yl)-7-(4-isopropoxyphenyl)imidazo[1,2-a]pyridine], the IC50 against ALK3/BMPRR1A worked out at 118 nM; at ALK6/BMPR1B, 340 nM; on ALK2/ACVR1, 155 nM; at ALK1/ACVR1 it was 87 nM; against ALK5/TGFBR1, 13600 nM.
Turning to `CC(C)Oc1ccc(-c2ccn3c(-c4ccnc(F)c4)cnc3c2)cc1` [Entry 26, 3-(2-fluoropyridin-4-yl)-7-(4-isopropoxyphenyl)imidazo[1,2-a]pyridine], the IC50 was 265 nM at ALK2/ACVR1 and greater than 100000 nM on ALK5/TGFBR1.
In the same order, the values of `c1ccc(-c2cnc3cc(-c4ccc(OCCN5CCOCC5)cc4)ccn23)cc1` [Entry 30, 4-(2-(4-(3-phenylimidazo[1,2-a]pyridin-7-yl)phenoxy)ethyl)morpholine] are 645 nM and greater than 100000 nM.
With `CC(C)Oc1ccc(-c2ccn3c(-c4cn[nH]c4)cnc3c2)cc1` [Entry 42, 7-(4-isopropoxyphenyl)-3-(1H-pyrazol-4-yl)imidazo[1,2-a]pyridine], the IC50 was 92 nM against ALK3/BMPRR1A; 895 nM at ALK6/BMPR1B; 1970 nM on ALK2/ACVR1; 494 nM against ALK1/ACVR1; greater than 100000 nM at ALK5/TGFBR1.
On to `Cc1cc(-c2cnc3cc(-c4ccc(OC(C)C)cc4)ccn23)ccn1` [Entry 45, 7-(4-isopropoxyphenyl)-3-(2-methylpyridin-4-yl)imidazo[1,2-a]pyridine], for which the IC50 against ALK2/ACVR1 was 149 nM; against ALK5/TGFBR1, 3490 nM.
In the case of `Cc1cc(-c2cnc3cc(-c4ccc(N5CCN(C)CC5)cc4)ccn23)c2ccccc2n1` [Entry 51, 2-methyl-4-(7-(4-(4-methylpiperazin-1-yl)phenyl)imidazo[1,2-a]pyridin-3-yl)quinoline], the midpoint of inhibition at ALK2/ACVR1, the IC50, lay at 26.5 nM. This counts as double-digit nanomolar.
`CN1CCN(c2ccc(-c3ccn4c(-c5csc6nccnc56)cnc4c3)cc2)CC1` [Entry 60, 7-(7-(4-(4-methylpiperazin-1-yl)phenyl)imidazo[1,2-a]pyridin-3-yl)thieno [2,3-b]pyrazine] came in with an IC50 at ALK3/BMPRR1A of 40.1 nM.
Same read-out and setting: in the case of `CN1CCN(c2ccc(-c3ccn4c(-c5ccnc6ccsc56)cnc4c3)cc2)CC1` [Entry 62, 7-(7-(4-(4-methylpiperazin-1-yl)phenyl)imidazo[1,2-a]pyridin-3-yl) thieno[3,2-b]pyridine] it was 50.8 nM.
As for `CN1CCN(c2ccc(-c3ccn4c(-c5ccncc5)cnc4c3)cc2)CC1` [Entry 66, 7-(4-(4-methylpiperazin-1-yl)phenyl)-3-(pyridin4-yl)imidazo[1,2-a]pyridine], the IC50 against ALK2/ACVR1 came to 46 nM.
The same measure, in the same setting: the same measure for `Cc1cc(-c2cnc3cc(-c4ccc(N5CCN(C)CC5)cc4)ccn23)ccn1` [Entry 67, 7-(4-(4-methylpiperazin-1-yl)phenyl)-3-(2-methylpyridin-4-yl)imidazo[1,2-a]pyridine]: 20 nM.
In turn, `c1ccc2c(-c3cnc4cc(-c5ccc(OCCN6CCOCC6)cc5)ccn34)ccnc2c1` [Example 1, 4-(2-(4-(3-(quinolin-4-yl)imidazo[1,2-a]pyridin-7-yl)phenoxy)ethyl)morpholine] yielded an IC50 with BMP4 of 62 nM. That is a double-digit nanomolar value.
Molecule `c1ccc2c(-c3cnc4cc(-c5ccc6c(c5)OCCO6)ccn34)ccnc2c1` [drawing 207] showed an IC50 in the assay with BMP4 of 2890 nM.
